Data as given in paper PMC10999543, “Identification of kinase modulators as host-directed therapeutics against intracellular methicillin-resistant Staphylococcus aureus” (Frontiers in Cellular and Infection Microbiology, 2024).
Where two headings read alike, the source gives them in different places.

Legend:
HeLa cells = assay: Compound screen by flow cytometry: HeLa cell count as surrogate readout of cell viability (z-scoreHeLa); format: cell-based, human; details: for cell count rep 1 / z-scoreHeLa rep 1: replicate 1; for cell count rep 2 / z-scoreHeLa rep 2: replicate 2; for cell count rep 3 / z-scoreHeLa rep 3: replicate 3; for z-scoreHeLa mean: mean of 3 replicates
Summary of the method: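 HeLa cells were infected with GFP-MRSA (mean MOI 6.8 ± 4.6) for 1 h, and extracellular bacteria were killed with 30 µg/ml gentamicin. Cells were then incubated overnight with kinase inhibitors in 5 µg/ml gentamicin, in triplicate against DMSO controls. Flow-cytometric cell count served as a viability surrogate, expressed as a plate z-score.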

intracellular MRSA = format: cell-based, Staphylococcus aureus; details: for %GFP+ rep 1 / z-scoreMRSA+ rep 1: replicate 1; for %GFP+ rep 2 / z-scoreMRSA+ rep 2: replicate 2; for %GFP+ rep 3 / z-scoreMRSA+ rep 3: replicate 3; for z-scoreMRSA+ mean: mean of 3 replicates
Summary of the method: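 HeLa cells infected with GFP-MRSA (MOI ~6.8), gentamicin-cleared, then incubated overnight at 37°C with inhibitors plus 5 µg/ml gentamicin; DMSO as negative control, triplicates. Flow cytometry gave % GFP-positive cells and cell count (viability surrogate); hits by plate z-score (MRSA ≤ -2, HeLa count ≥ -3).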

[1] = PKIS compound screen raw data, HeLa cell count
[2] = PKIS compound screen, HeLa cell count
[3] = PKIS compound screen, Yes/No call on z-scoreHeLa
[4] = PKIS compound screen raw data, MRSA-infected HeLa cells
[5] = PKIS compound screen, MRSA-infected HeLa cells
[6] = PKIS compound screen, Yes/No call (effect without cell death)
[7] = PKIS compound screen, Yes/No call on z-scoreMRSA+
[8] = compound screen, HeLa cell count
[9] = Yes/No: effect without cell death
[10] = compound screen, MRSA-infected HeLa cells
[11] = PKIS compounds raw data, HeLa cell count
[12] = PKIS compounds raw data, MRSA-infected HeLa cells
[13] = PKIS compound screen, Yes/No call

| SMILES | cell count rep 1 (HeLa cells; [1]) | cell count rep 2 (HeLa cells; [1]) | cell count rep 3 (HeLa cells; [1]) | %GFP+ rep 1 (intracellular MRSA; [4]) | %GFP+ rep 2 (intracellular MRSA; [4]) | %GFP+ rep 3 (intracellular MRSA; [4]) | hit (intracellular MRSA; [6]) | cell death (HeLa cells; Yes/No call from z-scoreHeLa) | z-scoreHeLa mean (HeLa cells; [8]) | z-scoreHeLa rep 1 (HeLa cells; [8]) | z-scoreHeLa rep 2 (HeLa cells; [8]) | z-scoreHeLa rep 3 (HeLa cells; [8]) | effect (intracellular MRSA; Yes/No call from z-scoreMRSA+) | hit (intracellular MRSA; [9]) | z-scoreMRSA+ mean (intracellular MRSA; [10]) | z-scoreMRSA+ rep 1 (intracellular MRSA; [10]) | z-scoreMRSA+ rep 2 (intracellular MRSA; [10]) | z-scoreMRSA+ rep 3 (intracellular MRSA; [10]) | cell count rep 1 (HeLa cells; [11]) | cell count rep 2 (HeLa cells; [11]) | also measured |
| --- | --- | --- | --- | --- | --- | --- | --- | --- | --- | --- | --- | --- | --- | --- | --- | --- | --- | --- | --- | --- | --- |
| CCS(=O)(=O)c1ccc(OC)c(Nc2nccc(N(C)c3ccc4c(C)n[nH]c4c3)n2)c1 [GW654652C] | 21654 | 25320 | 35112 | 13.7% | 14.6% | 13.9% | No | – | – | – | – | – | – | – | – | – | – | – | – | – | z-scoreHeLa mean (HeLa cells; [2]): -0.80; z-scoreHeLa rep 1 (HeLa cells; [2]): 0.23; z-scoreHeLa rep 2 (HeLa cells; [2]): -1.77; z-scoreHeLa rep 3 (HeLa cells; [2]): -0.86; cell death (HeLa cells; [3]): No; z-scoreMRSA+ mean (intracellular MRSA; [5]): -1.43; z-scoreMRSA+ rep 1 (intracellular MRSA; [5]): -1.32; z-scoreMRSA+ rep 2 (intracellular MRSA; [5]): -1.18; z-scoreMRSA+ rep 3 (intracellular MRSA; [5]): -1.79; effect (intracellular MRSA; [7]): No |
| CCS(=O)(=O)c1ccc(OC)c(Nc2ncc(-c3cccc(-c4ccccc4F)c3)o2)c1 [GW678313X] | 18271 | 31542 | 48427 | 14.1% | 12.8% | 13.1% | No | – | – | – | – | – | – | – | – | – | – | – | – | – | z-scoreHeLa mean (HeLa cells; [2]): 0.12; z-scoreHeLa rep 1 (HeLa cells; [2]): -0.28; z-scoreHeLa rep 2 (HeLa cells; [2]): -0.61; z-scoreHeLa rep 3 (HeLa cells; [2]): 1.26; cell death (HeLa cells; [3]): No; z-scoreMRSA+ mean (intracellular MRSA; [5]): -1.65; z-scoreMRSA+ rep 1 (intracellular MRSA; [5]): -1.19; z-scoreMRSA+ rep 2 (intracellular MRSA; [5]): -1.72; z-scoreMRSA+ rep 3 (intracellular MRSA; [5]): -2.04; effect (intracellular MRSA; [7]): No |
| COC(=O)Nc1nc2ccc(Oc3ccc(NC(=O)Nc4cc(C(F)(F)F)ccc4F)cn3)cc2[nH]1 [GW681170A] | 5819 | 4937 | 6470 | 25.2% | 20.8% | 21.7% | – | No | 0.78 | 1.06 | 0.49 | 0.78 | No | No | -0.20 | -0.0173 | -0.44 | -0.15 | – | – | – |
| Cc1n[nH]c2cc(Nc3ccnc(Nc4cccc(CN5CCOCC5)c4)n3)ccc12 [GW682569X] | – | – | – | – | – | – | – | No | -1.79 | -2.45 | -1.90 | -1.03 | No | No | 0.19 | 0.71 | 0.50 | -0.65 | 2071 | 1754 | cell count rep 3 (HeLa cells; [11]): 4807; %GFP+ rep 1 (intracellular MRSA; [12]): 15.4%; %GFP+ rep 2 (intracellular MRSA; [12]): 15.0%; %GFP+ rep 3 (intracellular MRSA; [12]): 13.7% |
| O=C(Nc1ccc(Oc2ccc3nc(NC(=O)c4ccco4)[nH]c3c2)cc1)Nc1cc(C(F)(F)F)ccc1F [GW683134A] | 24828 | 19604 | 15141 | 9.6% | 11.2% | 12.6% | – | No | -0.87 | -0.91 | -0.97 | -0.74 | Yes | Yes | -2.35 | -2.44 | -2.24 | -2.36 | – | – | – |
| COC(=O)Nc1nc2ccc(Oc3ccc(NC(=O)Nc4cc(C(F)(F)F)ccc4F)cc3)cc2n1C [GW692089A] | 28483 | 25969 | 19864 | 16.9% | 18.4% | 19.6% | No | – | – | – | – | – | – | – | – | – | – | – | – | – | z-scoreHeLa mean (HeLa cells; [2]): 0.00395; z-scoreHeLa rep 1 (HeLa cells; [2]): -0.29; z-scoreHeLa rep 2 (HeLa cells; [2]): 0.12; z-scoreHeLa rep 3 (HeLa cells; [2]): 0.18; cell death (HeLa cells; [3]): No; z-scoreMRSA+ mean (intracellular MRSA; [5]): -0.41; z-scoreMRSA+ rep 1 (intracellular MRSA; [5]): -0.50; z-scoreMRSA+ rep 2 (intracellular MRSA; [5]): -0.28; z-scoreMRSA+ rep 3 (intracellular MRSA; [5]): -0.45; effect (intracellular MRSA; [7]): No |
| Fc1cccc(COc2ccc(Nc3ncnc4cc(-c5ccc[nH]5)sc34)cc2Cl)c1 [GW693881A] | – | – | – | – | – | – | – | No | 0.30 | 0.64 | 0.23 | 0.04 | No | No | 0.17 | 0.75 | 0.44 | -0.68 | 5481 | 4577 | cell count rep 3 (HeLa cells; [11]): 7047; %GFP+ rep 1 (intracellular MRSA; [12]): 15.5%; %GFP+ rep 2 (intracellular MRSA; [12]): 14.8%; %GFP+ rep 3 (intracellular MRSA; [12]): 13.6% |
| c1ccc(-c2n[nH]cc2Nc2ccnc3ccccc23)nc1 [GW694077X] | 27159 | 28509 | 18866 | 15.2% | 17.2% | 15.3% | No | – | – | – | – | – | – | – | – | – | – | – | – | – | z-scoreHeLa mean (HeLa cells; [2]): 0.01; z-scoreHeLa rep 1 (HeLa cells; [2]): -0.51; z-scoreHeLa rep 2 (HeLa cells; [2]): 0.55; z-scoreHeLa rep 3 (HeLa cells; [2]): -0.0113; cell death (HeLa cells; [3]): No; z-scoreMRSA+ mean (intracellular MRSA; [5]): -1.06; z-scoreMRSA+ rep 1 (intracellular MRSA; [5]): -0.96; z-scoreMRSA+ rep 2 (intracellular MRSA; [5]): -0.60; z-scoreMRSA+ rep 3 (intracellular MRSA; [5]): -1.62; effect (intracellular MRSA; [7]): No |
| COC(=O)Nc1nc2ccc(Oc3ccc(NC(=O)Nc4cc(C(F)(F)F)ccc4Cl)cc3)cc2[nH]1 [GW697465A] | 4644 | 3894 | 5423 | 23.4% | 20.2% | 19.7% | – | No | 0.00465 | 0.21 | -0.31 | 0.12 | No | No | -0.59 | -0.44 | -0.59 | -0.75 | – | – | – |
| Cc1nnc(-c2ccc(C)c(-c3ccc(C(=O)Nc4ccc(NS(C)(=O)=O)cc4)cc3)c2)o1 [GW702865X] | – | – | – | – | – | – | – | No | -0.34 | -0.64 | -0.08 | -0.29 | No | No | 0.42 | 0.75 | 0.77 | -0.26 | 4074 | 4158 | cell count rep 3 (HeLa cells; [11]): 6358; %GFP+ rep 1 (intracellular MRSA; [12]): 15.5%; %GFP+ rep 2 (intracellular MRSA; [12]): 15.8%; %GFP+ rep 3 (intracellular MRSA; [12]): 15.0% |
| Fc1cccc(COc2ccc(Nc3ncnc4sc(-c5ccc[nH]5)cc34)cc2Cl)c1 [GW707818B] | – | – | – | – | – | – | – | No | 1.41 | 1.13 | 1.57 | 1.52 | No | No | 0.24 | -0.09 | -0.0758 | 0.87 | 5915 | 6344 | cell count rep 3 (HeLa cells; [11]): 7651; %GFP+ rep 1 (intracellular MRSA; [12]): 24.9%; %GFP+ rep 2 (intracellular MRSA; [12]): 22.3%; %GFP+ rep 3 (intracellular MRSA; [12]): 25.1% |
| Cc1nnc(-c2ccc(C)c(-c3ccc(C(=O)NCc4ccc(Cl)cc4)cc3)c2)o1 [GW708893X] | – | – | – | – | – | – | No | – | – | – | – | – | – | – | – | – | – | – | 5153 | 5899 | cell death (HeLa cells; [13]): No; z-scoreHeLa mean (HeLa cells; PKIS compound screen): 0.63; z-scoreHeLa rep 1 (HeLa cells; PKIS compound screen): 0.34; z-scoreHeLa rep 2 (HeLa cells; PKIS compound screen): 1.23; z-scoreHeLa rep 3 (HeLa cells; PKIS compound screen): 0.31; cell count rep 3 (HeLa cells; [11]): 7607; effect (intracellular MRSA; [13]): No; z-scoreMRSA+ mean (intracellular MRSA; PKIS compound screen): 0.76; z-scoreMRSA+ rep 1 (intracellular MRSA; PKIS compound screen): 0.91; z-scoreMRSA+ rep 2 (intracellular MRSA; PKIS compound screen): 1.61; z-scoreMRSA+ rep 3 (intracellular MRSA; PKIS compound screen): -0.23; %GFP+ rep 1 (intracellular MRSA; [12]): 16.0%; %GFP+ rep 2 (intracellular MRSA; [12]): 18.3%; %GFP+ rep 3 (intracellular MRSA; [12]): 15.1% |
